Test results reported in PMC4072508, “Genome-Wide Prediction and Validation of Peptides That Bind Human Prosurvival Bcl-2 Proteins” (PLoS Computational Biology, 2014).
Like-named read-outs stand apart in the source and are kept apart here. No end group written: not given here.

Legend:
[1] = target: T1, Mcl-1 (Homo sapiens, UniProt Q07820); assay: Peptide SPOT array binding
T1 construct: myc-Mcl-1 SPOT array & FP; made in house
Protocol: (§1) Peptide SPOT arrays were synthesized using F-moc chemistry on nitrocellulose membranes at the MIT Biopolymers facility using an Intavis AutoSpot robot. Peptide spots were cut from the membrane, hydrated in 100% methanol, transferred to TBS (50 mM Tris, pH 8.1, 100 mM NaCl, 0.01% Triton X-100) with 1% bovine serum albumin (BSA), here called blocking buffer, and incubated at room temperature for ∼10 minutes. Membranes were then incubated with 10 ml of 1 µM or 100 nM c-Myc-tagged receptor (sequences in Table S6) in TBS for 1 h at room temperature. Membranes were then rinsed 3× with blocking buffer and then incubated with anti-c-myc-Cy3 antibody (Sigma Aldrich C6594) diluted 100-fold in blocking buffer for 1 hour at room temperature. Membranes were rinsed 3× with blocking buffer and scanned on a Typhoon 9400 (GE Healthcare). Images were analyzed with ImageQuant (GE Healthcare), and Cy3 intensity at 580 nm was averaged over a circular area that was equal in size for all spots for a given membrane. Typically, 5–10 known binders and their negative controls were included.

[2] = target: T2, Bfl-1 (Homo sapiens, UniProt Q16548); assay: Peptide SPOT array binding
T2 construct: myc- Bfl-1 SPOT array & FP; made in house
T2 sequence (Q16548 with tags, fused parts or gaps): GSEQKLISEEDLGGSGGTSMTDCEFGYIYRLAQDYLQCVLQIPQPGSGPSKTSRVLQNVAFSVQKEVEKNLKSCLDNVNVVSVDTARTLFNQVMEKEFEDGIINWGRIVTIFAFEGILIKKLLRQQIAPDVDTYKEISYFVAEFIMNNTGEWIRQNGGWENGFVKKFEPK
Protocol: as §1

[3] = target: T3, Bcl-xL (Homo sapiens, UniProt Q07817); assay: Peptide SPOT array binding; details: c-Myc-tagged receptor 1 µM or 100 nM, anti-c-myc-Cy3 read-out
T3 construct: myc-Bcl-xL SPOT array & FP; made in house
T3 sequence (Q07817 with tags, fused parts or gaps): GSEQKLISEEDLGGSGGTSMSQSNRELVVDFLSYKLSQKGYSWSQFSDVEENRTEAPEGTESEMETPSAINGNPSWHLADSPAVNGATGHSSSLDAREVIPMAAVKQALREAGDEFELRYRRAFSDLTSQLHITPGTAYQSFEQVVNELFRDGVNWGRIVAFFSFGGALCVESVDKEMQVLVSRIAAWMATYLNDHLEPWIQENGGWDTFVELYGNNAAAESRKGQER
Protocol: as §1

[4] = target: T4, Bcl-w (Homo sapiens, UniProt Q92843, Q133R); assay: Peptide SPOT array binding; details: c-Myc-tagged receptor 1 µM or 100 nM, anti-c-myc-Cy3 read-out
T4 construct: myc-Bcl-w SPOT array & FP; made in house
T4 sequence (Q92843 with tags, fused parts or gaps Q133R): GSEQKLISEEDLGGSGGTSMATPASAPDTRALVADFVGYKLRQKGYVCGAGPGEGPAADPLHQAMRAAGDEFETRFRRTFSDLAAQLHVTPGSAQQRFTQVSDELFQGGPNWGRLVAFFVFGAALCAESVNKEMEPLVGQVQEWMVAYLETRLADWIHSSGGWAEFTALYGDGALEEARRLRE
Protocol: as §1

[5] = target: T5, Bcl-2 (Homo sapiens, UniProt P10415, DEL53-91); assay: Peptide SPOT array binding; details: c-Myc-tagged receptor 1 µM or 100 nM, anti-c-myc-Cy3 read-out
T5 construct: myc- Bcl-2 FP; made in house
T5 sequence (P10415 with tags, fused parts or gaps DEL53-91): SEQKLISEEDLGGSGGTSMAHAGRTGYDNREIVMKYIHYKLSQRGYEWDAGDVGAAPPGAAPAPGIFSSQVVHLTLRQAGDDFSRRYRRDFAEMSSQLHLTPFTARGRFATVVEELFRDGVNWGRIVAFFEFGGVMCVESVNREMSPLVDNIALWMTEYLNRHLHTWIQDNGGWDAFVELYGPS
Protocol: as §1

[6] = test system: prosurvival proteins Bcl-xL, Bcl-w, Bcl-2, Mcl-1 and Bfl-1; assay: Peptide SPOT array binding, receptor not specified; design: species or system human; details: for Reduction in SPOT array signal when control mutations were introduced: 3aD and 3eL negative controls, receptor not specified; for SPOT array binding specificity among five prosurvival proteins: array IV
Protocol: as §1

[7] = target: T3, Bcl-xL; details: S1 Bim variants, specific binding measured using yeast display; ref Dutta et al. (2010); cited from earlier work
[8] = target: T1, Mcl-1; details: read-out: Binder class, Mcl-1; S1 Bim variants, specific binding measured using yeast display; ref Dutta et al. (2010); cited from earlier work
Excerpt: Negative control mutatio ...

[9] = target: T3, Bcl-xL; assay: Fluorescence polarization direct binding
Summary of the method: (§2)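 KD values come from a single-site fit of pooled replicate FP titration curves. Conditions: 25°C, 20 mM sodium phosphate, 50 mM NaCl, 1 mM EDTA, 0.001% Triton X, pH 7.8; anisotropy measured.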

[10] = target: T1, Mcl-1; assay: Fluorescence polarization direct binding
Summary of the method: as §2

[11] = target: T4, Bcl-w; assay: Fluorescence polarization direct binding
Summary of the method: as §2

[12] = target: T5, Bcl-2; assay: Fluorescence polarization direct binding
Summary of the method: as §2

[13] = target: T2, Bfl-1; assay: Fluorescence polarization direct binding
Summary of the method: as §2

[14] = c-Myc-tagged receptor 1 µM or 100 nM, anti-c-myc-Cy3 read-out
[15] = FP direct binding, 10 nM FAM-labeled peptide, receptor titrated, 25°C, pH 7.8, fit of all replicate titrations, X+number in a cell = highest concentration (nM) measured with no binding detected, given here as >, SPNS1 fit to raw fluorescence

T1 sequence (Q07820 with tags, fused parts or gaps): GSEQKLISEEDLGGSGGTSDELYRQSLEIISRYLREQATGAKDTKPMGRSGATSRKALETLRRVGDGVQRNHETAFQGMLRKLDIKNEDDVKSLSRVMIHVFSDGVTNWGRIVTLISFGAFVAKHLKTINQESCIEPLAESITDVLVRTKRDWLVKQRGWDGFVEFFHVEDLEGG

Substance | Binder class (Kd bin) [7] [µM] | Kd [8] [µM] | other results
AAQRYGRELRRMSDEFVDSFKKG [Bad] | – | – | Reduction in SPOT array signal for at least one of the negative controls, Mcl-1 ([1]; 3aD / 3eL mutations): less than 25%; Reduction in SPOT array signal for at least one of the negative controls, Bfl-1 ([2]; 3aD / 3eL mutations): less than 25%
APOL6: peptide from APOL6, putative BH3 motif (KEDLKGNIDKLRALADDIDKTHKKFT) | – | – | SPOT array signal as % of the Bim BH3 signal, Bcl-xL [3]: 17%
EGEKEVEALKKSADWVSDWSSRP [BNIP3L] | – | – | SPOT array signal as % of the Bim BH3 signal, Bcl-xL [3]: less than 3%; SPOT array signal as % of the Bim BH3 signal, Mcl-1 [1, 14]: less than 3%; SPOT array signal as % of the Bim BH3 signal, Bcl-w [4]: less than 3%; SPOT array signal as % of the Bim BH3 signal, Bcl-2 [5]: less than 3%; SPOT array signal as % of the Bim BH3 signal, Bfl-1 [2, 14]: 8%
MTQEVGQLLQDMGDDVYQQYRSL [Mule] | – | – | Reduction in SPOT array signal when control mutations were introduced [6]: more than 30%; SPOT array binding specificity among five prosurvival proteins [6]: binding specifically to Mcl-1
PEIWVAQEIERIGNEVNAYYARR | > 10 | < 1 | –
PEIWVAQEIGRIGDETNAYYARR | > 10 | < 1 | –
PEIWVAQEIGRIGNEINAYYARR | > 10 | < 1 | –
PEIWVAQEINRIGEEINAYYARR | > 10 | < 1 | –
PEIWVAQEINRVGDEVNAYYARR | > 10 | < 1 | –
PEIWVAQEIRRVGDENNAYYARR | > 10 | < 1 | –
PEIWVAQELERIGEEVNAYYARR | > 10 | < 1 | –
PEIWVAQELGRDGDEFNAYYARR | < 1 | > 10 | –
PEIWVAQELGRNGDEYNAYYARR | < 1 | > 10 | –
PEIWVAQELGRTGDEVNAYYARR | > 10 | < 1 | –
PEIWVAQELKRAGEEFNAYYARR | < 1 | > 10 | –
PEIWVAQELKRNGDEFNAYYARR | < 1 | > 10 | –
PEIWVAQELSRAGDEFNAYYARR | < 1 | > 10 | –
PEIWVAQEVDRIGDEVNAYYARR | > 10 | < 1 | –
PEIWYAQEAKRFGDEFNAYYARR | < 1 | > 10 | –

Substance | Binder class (Kd bin) [7] [µM] | Kd [8] [µM] | other results
PEIWYAQEIGRYGDEFNAYYARR | < 1 | > 10 | –
PEIWYAQEINRIGDEVNAYYARR | > 10 | < 1 | –
PEIWYAQEIQRYGDEFNAYYARR | < 1 | > 10 | –
PEIWYAQEIRRAGDEFNAYYARR | < 1 | > 10 | –
PEIWYAQEIRRFGDEFNAYYARR | < 1 | > 10 | –
PEIWYAQELERIGDEVNAYYARR | > 10 | < 1 | –
PEIWYAQELGRAGDEFNAYYARR | < 1 | > 10 | –
PEIWYAQELGRNGDEYNAYYARR | < 1 | > 10 | –
PEIWYAQELGRYGDEYNAYYARR | < 1 | > 10 | –
PEIWYAQELKRDGDEFNAYYARR | < 1 | > 10 | –
PEIWYAQELKRFGDENNAYYARR | < 1 | > 10 | –
PEIWYAQELKRYGDENNAYYARR | < 1 | > 10 | –
PEIWYAQELQRNGDEFNAYYARR | < 1 | > 10 | –
PEIWYAQELRRDGDEYNAYYARR | < 1 | > 10 | –
PEIWYAQELRRNGDEYNAYYARR | < 1 | > 10 | –
PEIWYAQEVKRYGDEYNAYYARR | < 1 | > 10 | –
PEIWYAQEVQRIGDEVNAYYARR | > 10 | < 1 | –
RLAEVCAVLLRLGDELEMIRPSV [Bok] | – | – | Reduction in SPOT array signal when control mutations were introduced [6]: more than 30%; SPOT array binding specificity among five prosurvival proteins [6]: binding specifically to Mcl-1
THEEVVHLLRNAGDEVTITVEYL-NH2 [SNTG2] | – | – | Kd ([9]; FP direct binding, 10 nM FAM-labeled peptide, receptor titrated, 25°C, pH 7.8, fit of all replicate titrations, X+number in a cell = highest concentration (nM) measured with no binding detected, given here as >, SPNS1 fit to raw fluorescence, read-out: Best-fit KD, Bcl-xL): > 4000 nM; Kd ([9]; benchmark classification of peptides newly characterized in this study, read-out: Binder class, Bcl-xL): > 10000 nM; Kd ([10]; Binder class, Mcl-1, benchmark classification of peptides newly characterized in this study): < 1000 nM; Best-fit KD, Mcl-1 [10, 15]: bound tightly; Kd [10, 15]: 22 nM; Kd ([11]; FP direct binding, 10 nM FAM-labeled peptide, receptor titrated, 25°C, pH 7.8, fit of all replicate titrations, X+number in a cell = highest concentration (nM) measured with no binding detected, given here as >, SPNS1 fit to raw fluorescence, read-out: Best-fit KD, Bcl-w): > 6560 nM; Kd ([11]; benchmark classification of peptides newly characterized in this study, read-out: Binder class, Bcl-w): > 10000 nM; Kd ([12]; FP direct binding, 10 nM FAM-labeled peptide, receptor titrated, 25°C, pH 7.8, fit of all replicate titrations, X+number in a cell = highest concentration (nM) measured with no binding detected, given here as >, SPNS1 fit to raw fluorescence, read-out: Best-fit KD, Bcl-2): > 3050 nM; Kd ([12]; benchmark classification of peptides newly characterized in this study, read-out: Binder class, Bcl-2): > 10000 nM; Kd ([13]; FP direct binding, 10 nM FAM-labeled peptide, receptor titrated, 25°C, pH 7.8, fit of all replicate titrations, X+number in a cell = highest concentration (nM) measured with no binding detected, given here as >, SPNS1 fit to raw fluorescence, read-out: Best-fit KD, Bfl-1): > 4070 nM; Kd ([13]; benchmark classification of peptides newly characterized in this study, read-out: Binder class, Bfl-1): > 10000 nM
